The results in this text go back to patent US10508105B2, “Indazole compounds as mGluR4 allosteric potentiators, compositions, and methods of treating neurological dysfunction” (Vanderbilt University, priority 2017, dated 2019).

Structures are written as SMILES. Read-outs that look alike come from different tables or passages of the source.

Data set [1] has as its target human mGlu4 (Homo sapiens (Human), UniProt Q14833). The data set can be described thus: mGlu4 PAM assay in human mGlu4/Gqi5 cells with ~EC20 glutamate (Hamamatsu FDSS). Type of data set: cell-based. Particulars: ~EC20 concentration of glutamate. How it is done: The disclosed compounds and compositions can be evaluated for their ability to act as a potentiatior of metabotropic glutamate receptor activity, in particular mGluR4 activity, by any suitable known methodology known in the art. For example, Chinese Hamster Ovary (CHO) cells transfected with human mGluR4 or HEK cells co-transfected with rat mGluR4 and the G-protein regulated Inwardly Rectifying Potassium channel (GIRK) were plated in clear bottom assay plates for assay in a Hamamatsu FDSS Fluorometric Plate Reader. The cells were loaded with either a Ca2+-sensitive fluorescent dye or the thallium responsive dye and the plates were washed and placed into a suitable kinetic plate reader. For human mGluR4 assays, a fluorescence baseline was established for 3-5 seconds, the disclosed compounds were then added to the cells, and the response in cells was measured. Approximately two and a half minutes later, a concentration of mGluR4 orthosteric agonist (e.g. glutamate, L-AP4, or L-SOP) eliciting approximately 20% (EC20) of the maximal agonist response was added to the cells, and the response was measured. Two minutes later, a concentration of mGluR4 agonist (e.g. glutamate, L-AP4, or L-SOP) eliciting 80% (EC80) of the maximal agonist response was added to the cells, and the response was measured. For rat mGluR4/GIRK experiments, a baseline was established for approximately five seconds, disclosed compounds were added, and either an EC20 or EC80 concentration of agonist was added approximately two and one half minutes later.
The above described assay operated in two modes. In the first mode, a range of concentrations of the disclosed compounds are added to cells, followed by a single fixed concentration of agonist. If the compound acts as a potentiatior, an EC50 value for potentiation and a maximum extent of potentiation by the compound at this concentration of agonist is determined by non-linear curve fitting. If the compound acts as an antagonist, an IC50 value is determined by non-linear curve fitting. In the second mode, several fixed concentrations of the disclosed compounds are added to various wells on a plate, followed by a range in concentrations of agonist for each concentration of disclosed compound. The EC50 values for the agonist at each concentration of compound are determined by non-linear curve fitting. A decrease in the EC50 value of the agonist with increasing concentrations of the sample compound (a leftward shift of the agonist concentration-response curve) is an indication of the degree of mGluR4 potentiation at a given concentration of the sample compound. A decrease in the maximal response of the agonist with increasing concentrations of the sample compounds, with or without a rightward shift in agonist potency, is an indication of the degree of antagonism at mGluR4. The second mode also indicates whether the sample compounds also affect the maximum response to mGluR4 to agonists.

A short description of data set [2]: rat CNS penetration (Kp). Type of data set: in vivo. Conditions: brain/plasma.
Data set [3] relates to haloperidol-induced catalepsy. The data set can be described thus: haloperidol-induced catalepsy (standard PD model). In kind it is in vivo, rodent. Conditions: oral doses after haloperidol; relative to control mGlu4 PAM VU506. The source says: B) Efficacy of example 131 in the standard PD model of haloperidol-induced catalepsy, relative to a control mGlu4 PAM, VU506. […] Also see a) Engers, D. W.; Gogliotti, R. D.; Cheung, Y-Y.; Salovich, J. M.; Garcia-Barrantes, P. M.; Daniels, J. S.; Morrison, R.; Jones, C. K.; Blobaum, A. L.; Macor, J. E.; Bronson, J. J.; Conn, P. J.; Lindsley, C. W.; Niswender, C. M.; Hopkins, C. R. ‘Discovery, synthesis and pre-clinical characterization of N-(3-chloro-4-fluorophenyl)-1H-pyrazolo[4,3-b]pyridin-3-amine (VU0418506), a novel positive allosteric modulator of the metabotropic glutamate receptor 4 (mGlu4)’ ACS Chem. Neurosci. 2016, 7, 1192-1200; b) Niswender, C. M.; Jones, C. K.; Bubser, M.; Gray, A. T.; Blobaum, A. L.; Engers, D. W.; Altman, M. K.; O'Brien, D. E.; Rook, J. M.; Rodriguez, A. L.; Loch, M. T.; Daniels, J. S.; Lindsley, C. W.; Hopkins, C. R.; Conn, P. J. ‘Development of VU0418506, a positive allosteric modulator that differentiates metabotropic glutamate receptor 4 (mGlu4) homomeric receptors from mGlu2/4 heteromers’ ACS Chem. Neurosci., 2016, 7, 1201-1211.

Data set [4] in a line: Brain-Plasma Kp. In kind it is in vivo. Particulars: brain and plasma.

Sequence of human mGlu4 (Q14833 33-912): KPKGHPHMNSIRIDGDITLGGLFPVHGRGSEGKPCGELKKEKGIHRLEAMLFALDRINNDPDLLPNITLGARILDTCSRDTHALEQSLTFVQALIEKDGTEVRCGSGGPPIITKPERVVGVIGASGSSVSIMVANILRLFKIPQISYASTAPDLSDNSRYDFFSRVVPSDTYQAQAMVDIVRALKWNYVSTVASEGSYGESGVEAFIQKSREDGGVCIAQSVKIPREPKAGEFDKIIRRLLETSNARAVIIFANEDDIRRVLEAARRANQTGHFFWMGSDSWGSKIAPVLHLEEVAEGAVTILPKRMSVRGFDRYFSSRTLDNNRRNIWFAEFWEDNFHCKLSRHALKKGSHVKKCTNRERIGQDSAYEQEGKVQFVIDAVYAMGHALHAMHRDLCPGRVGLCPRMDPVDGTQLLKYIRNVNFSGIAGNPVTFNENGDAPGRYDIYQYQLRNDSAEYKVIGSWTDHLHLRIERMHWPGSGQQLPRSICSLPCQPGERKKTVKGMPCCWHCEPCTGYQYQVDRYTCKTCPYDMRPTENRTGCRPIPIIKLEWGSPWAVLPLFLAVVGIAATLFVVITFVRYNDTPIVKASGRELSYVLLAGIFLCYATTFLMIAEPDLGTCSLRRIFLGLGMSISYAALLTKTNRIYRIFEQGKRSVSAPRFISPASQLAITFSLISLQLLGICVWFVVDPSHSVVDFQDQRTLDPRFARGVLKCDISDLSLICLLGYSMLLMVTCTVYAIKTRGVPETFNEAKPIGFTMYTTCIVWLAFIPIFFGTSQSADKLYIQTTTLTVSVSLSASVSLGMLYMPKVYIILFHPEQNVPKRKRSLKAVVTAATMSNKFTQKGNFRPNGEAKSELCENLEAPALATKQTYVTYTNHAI

In the case of `Cn1nc(OC[C@H]2COCCO2)c2ccc(NC(=O)c3ncccc3N)cc21` [Compound 131], the EC50 in data set [1] (read-out: mGlu4 PAM EC50) worked out at 50.1 nM. Moreover, in data set [2], the concentration ratio (Kp) was 1.6. Also, the “reversal of haloperidol-induced catalepsy” value in data set [3] is given as “reverse catalepsy in a dose-dependent manner”.

For `O=C(Nc1ccc2c(OC[C@@H]3CCOC3)n[nH]c2c1)c1ccccn1`, the EC50 in data set [1] (read-out: hmGluR4 PAM EC50) turned out to be 201 nM. Further, the Kp in data set [4] (rat) is 1.44.

Take `Cn1nc(OCC2CCOCC2)c2ccc(NC(=O)c3ccc(F)cn3)cc21`: in data set [1] (read-out: hmGluR4 PAM EC50), the EC50 is 99.2 nM. Also, in data set [4], the Kp is 3.29.

Turning to `Cn1nc(OC[C@H]2CCOC2)c2ncc(NC(=O)c3ncccc3N)cc21` [drawing 247], in data set [1] (read-out: hmGluR4 PAM EC50), the EC50 worked out at 166 nM. The Kp in data set [4] (rat) is 1.83.

On to `O=C(Nc1ccc2c(OCC3CCOC3)n[nH]c2c1)c1ccccn1` (centres unmarked), for which the EC50 in data set [1] (read-out: hmGluR4 PAM EC50) stood at 360 nM. The Kp in data set [4] (rat) is 2.09.

The EC50 is the concentration giving half of the maximal effect. The term Kp denotes the ratio of the level in a tissue or fluid to that in plasma or blood.
